Experiments:
Assay in all cases: relative viability (nuclei count vs DMSO), 5 days (fraction); higher = more cells survive
NCI-H2228 = test system: NCI-H2228
Outline: (§1)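 Dosing by pin tool came one day after lung cancer cell lines were seeded in 1536-well plates, using either one drug or a fixed anchor-drug dose plus five library-drug doses (not always all listed) in √10 steps. After 5 days, nuclei were counted on 4× images. Relative viability is treated-well nuclei count divided by vehicle-well nuclei count, and values are medians of duplicate plates.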

PC-14 = test system: PC-14
Outline: as §1

NCI-H661 = test system: NCI-H661
Outline: as §1

SK-MES-1 = test system: SK-MES-1
Outline: as §1

CAL-12T = test system: CAL-12T
Outline: as §1

NCI-H2087 = test system: NCI-H2087
Outline: as §1

NCI-H1666 = test system: NCI-H1666
Outline: as §1

NCI-H1395 = test system: NCI-H1395
Outline: as §1

NCI-H358 = test system: NCI-H358
Outline: as §1

NCI-H838 = test system: NCI-H838
Outline: as §1

ABC-1 = test system: ABC-1
Outline: as §1

NCI-H1355 = test system: NCI-H1355
Outline: as §1

NCI-H1651 = test system: NCI-H1651
Outline: as §1

UMC-11 = test system: UMC-11
Outline: as §1

NCI-H2085 = test system: NCI-H2085
Outline: as §1

PC-3 [JPC-3] = test system: PC-3 [JPC-3]
Outline: as §1

LK-2 = test system: LK-2
Outline: as §1

NCI-H1915 = test system: NCI-H1915
Outline: as §1

H3255 = test system: H3255
Outline: as §1

A-427 = test system: A-427
Outline: as §1

LCLC-97TM1 = test system: LCLC-97TM1
Outline: as §1

NCI-H322M = test system: NCI-H322M
Outline: as §1

## O=c1[nH]c2ccccc2n1C1CCN(CCCC(c2ccc(F)cc2)c2ccc(F)cc2)CC1 [Pimozide] + O=C(CCCCCCC(=O)Nc1ccccc1)NO [Vorinostat] (partner 1 µM)
NCI-H2228; first compound 0.08 µM
  relative viability: 0.623
NCI-H2228; first compound 0.253 µM
  relative viability: 0.668
NCI-H2228; first compound 0.8 µM
  relative viability: 0.668
NCI-H2228; first compound 2.53 µM
  relative viability: 0.677
NCI-H2228; first compound 8 µM
  relative viability: 0.318
PC-14; first compound 0.253 µM
  relative viability: 0.711
PC-14; first compound 0.8 µM
  relative viability: 0.684
PC-14; first compound 2.53 µM
  relative viability: 0.713
PC-14; first compound 8 µM
  relative viability: 0.701
NCI-H661; first compound 0.08 µM
  relative viability: 0.667
NCI-H661; first compound 0.253 µM
  relative viability: 0.741
NCI-H661; first compound 0.8 µM
  relative viability: 0.723
NCI-H661; first compound 2.53 µM
  relative viability: 0.699
NCI-H661; first compound 8 µM
  relative viability: 0.64
SK-MES-1; first compound 0.08 µM
  relative viability: 1.13
SK-MES-1; first compound 0.253 µM
  relative viability: 1.02
SK-MES-1; first compound 0.8 µM
  relative viability: 0.991
SK-MES-1; first compound 2.53 µM
  relative viability: 1.06
SK-MES-1; first compound 8 µM
  relative viability: 0.996
CAL-12T; first compound 0.08 µM
  relative viability: 0.732
CAL-12T; first compound 0.253 µM
  relative viability: 0.896
CAL-12T; first compound 0.8 µM
  relative viability: 0.7
CAL-12T; first compound 2.53 µM
  relative viability: 0.665
CAL-12T; first compound 8 µM
  relative viability: 0.664
NCI-H2087; first compound 0.08 µM
  relative viability: 0.802
NCI-H2087; first compound 0.253 µM
  relative viability: 0.597
NCI-H2087; first compound 2.53 µM
  relative viability: 0.615
NCI-H2087; first compound 8 µM
  relative viability: 0.774
NCI-H1666; first compound 0.08 µM
  relative viability: 1.09
NCI-H1666; first compound 0.253 µM
  relative viability: 0.905
NCI-H1666; first compound 0.8 µM
  relative viability: 0.924
NCI-H1666; first compound 2.53 µM
  relative viability: 0.991
NCI-H1666; first compound 8 µM
  relative viability: 1.02
NCI-H1395; first compound 0.08 µM
  relative viability: 0.696
NCI-H1395; first compound 0.253 µM
  relative viability: 0.607
NCI-H1395; first compound 0.8 µM
  relative viability: 0.629
NCI-H1395; first compound 2.53 µM
  relative viability: 0.711
NCI-H1395; first compound 8 µM
  relative viability: 0.628
NCI-H358; first compound 0.08 µM
  relative viability: 0.697
NCI-H358; first compound 0.253 µM
  relative viability: 0.685
NCI-H358; first compound 0.8 µM
  relative viability: 0.639
NCI-H358; first compound 2.53 µM
  relative viability: 0.906
NCI-H358; first compound 8 µM
  relative viability: 0.679
NCI-H838; first compound 0.08 µM
  relative viability: 0.745
NCI-H838; first compound 0.253 µM
  relative viability: 0.716
NCI-H838; first compound 0.8 µM
  relative viability: 0.663
NCI-H838; first compound 2.53 µM
  relative viability: 0.702
NCI-H838; first compound 8 µM
  relative viability: 0.705
ABC-1; first compound 0.08 µM
  relative viability: 1.3
ABC-1; first compound 0.253 µM
  relative viability: 1.15
ABC-1; first compound 0.8 µM
  relative viability: 0.884
ABC-1; first compound 2.53 µM
  relative viability: 0.908
ABC-1; first compound 8 µM
  relative viability: 0.719
NCI-H1355; first compound 0.08 µM
  relative viability: 0.592
NCI-H1355; first compound 0.253 µM
  relative viability: 0.597
NCI-H1355; first compound 0.8 µM
  relative viability: 0.547
NCI-H1355; first compound 2.53 µM
  relative viability: 0.607
NCI-H1355; first compound 8 µM
  relative viability: 0.608
NCI-H1651; first compound 0.08 µM
  relative viability: 0.565
NCI-H1651; first compound 0.253 µM
  relative viability: 0.507
NCI-H1651; first compound 0.8 µM
  relative viability: 0.599
NCI-H1651; first compound 2.53 µM
  relative viability: 0.578
NCI-H1651; first compound 8 µM
  relative viability: 0.593
UMC-11; first compound 0.08 µM
  relative viability: 0.426
UMC-11; first compound 0.253 µM
  relative viability: 0.388
UMC-11; first compound 0.8 µM
  relative viability: 0.348
UMC-11; first compound 2.53 µM
  relative viability: 0.382
UMC-11; first compound 8 µM
  relative viability: 0.318
NCI-H2085; first compound 0.08 µM
  relative viability: 0.77
NCI-H2085; first compound 0.253 µM
  relative viability: 0.861
NCI-H2085; first compound 0.8 µM
  relative viability: 0.723
NCI-H2085; first compound 2.53 µM
  relative viability: 0.802
NCI-H2085; first compound 8 µM
  relative viability: 0.741
PC-3 [JPC-3]; first compound 0.253 µM
  relative viability: 0.763
PC-3 [JPC-3]; first compound 0.8 µM
  relative viability: 0.716
PC-3 [JPC-3]; first compound 2.53 µM
  relative viability: 0.882
PC-3 [JPC-3]; first compound 8 µM
  relative viability: 0.726
LK-2; first compound 0.08 µM
  relative viability: 0.2
LK-2; first compound 0.253 µM
  relative viability: 0.342
LK-2; first compound 0.8 µM
  relative viability: 0.254
LK-2; first compound 2.53 µM
  relative viability: 0.267
LK-2; first compound 8 µM
  relative viability: 0.395
NCI-H1915; first compound 0.08 µM
  relative viability: 0.525
NCI-H1915; first compound 0.253 µM
  relative viability: 0.48
NCI-H1915; first compound 2.53 µM
  relative viability: 0.432
NCI-H1915; first compound 8 µM
  relative viability: 0.487
H3255; first compound 0.253 µM
  relative viability: 0.699
H3255; first compound 0.8 µM
  relative viability: 0.714
H3255; first compound 2.53 µM
  relative viability: 0.843
H3255; first compound 8 µM
  relative viability: 0.808
A-427; first compound 0.08 µM
  relative viability: 0.893
A-427; first compound 0.253 µM
  relative viability: 0.875
A-427; first compound 0.8 µM
  relative viability: 0.775
A-427; first compound 2.53 µM
  relative viability: 0.854
A-427; first compound 8 µM
  relative viability: 0.815
LCLC-97TM1; first compound 0.08 µM
  relative viability: 0.753
LCLC-97TM1; first compound 0.253 µM
  relative viability: 0.738
LCLC-97TM1; first compound 0.8 µM
  relative viability: 0.455
LCLC-97TM1; first compound 2.53 µM
  relative viability: 0.526
LCLC-97TM1; first compound 8 µM
  relative viability: 0.584
NCI-H322M; first compound 0.08 µM
  relative viability: 0.885
NCI-H322M; first compound 0.253 µM
  relative viability: 0.844
NCI-H322M; first compound 0.8 µM
  relative viability: 0.88
NCI-H322M; first compound 2.53 µM
  relative viability: 0.885
NCI-H322M; first compound 8 µM
  relative viability: 0.786

Reference: the supplement of paper PMC10307832
